Results reported in patent US12521440B2, “Degradation of bruton's tyrosine kinase (BTK) by conjugation of BTK inhibitors with E3 ligase ligand and methods of use” (BeOne Medicines I GmbH, priority 2021, dated 2026).

Legend:
BTK = biological target: T1, BTK (Homo sapiens, UniProt Q06187); assay: BTK degradation in TMD-8 cells (HTRF assay); format: cell-based; details: 6 h treatment, HTRF BTK degradation IC50 (DC50)
T1 construct: endogenous in cells; host or cells: TMD-8 cells
In short: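 BTK levels measured by HTRF (665/620 nm) in lysates of TMD-8 cells after 6 h compound treatment, with antibody incubation overnight at room temperature. Dosing covered 8 points, 6-fold dilutions from 1 mM 500× stocks, 0.2% DMSO final. Four-parameter curve fitting gave DC50.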

HEK-293 cells = assay: HEK-293 cytotoxicity detection (CellTiter-Glo); format: cell-based; details: Homo sapiens, 72 h incubation, read-out: HEK293
In short: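 Cytotoxicity IC50 derived by four-parameter curve fitting of percent inhibition of CellTiter-Glo luminescence. Compounds tested at 8 doses in 4-fold steps, 0.2% DMSO, on HEK-293 cells for 72 h.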

T1 sequence (Q06187 whole entry): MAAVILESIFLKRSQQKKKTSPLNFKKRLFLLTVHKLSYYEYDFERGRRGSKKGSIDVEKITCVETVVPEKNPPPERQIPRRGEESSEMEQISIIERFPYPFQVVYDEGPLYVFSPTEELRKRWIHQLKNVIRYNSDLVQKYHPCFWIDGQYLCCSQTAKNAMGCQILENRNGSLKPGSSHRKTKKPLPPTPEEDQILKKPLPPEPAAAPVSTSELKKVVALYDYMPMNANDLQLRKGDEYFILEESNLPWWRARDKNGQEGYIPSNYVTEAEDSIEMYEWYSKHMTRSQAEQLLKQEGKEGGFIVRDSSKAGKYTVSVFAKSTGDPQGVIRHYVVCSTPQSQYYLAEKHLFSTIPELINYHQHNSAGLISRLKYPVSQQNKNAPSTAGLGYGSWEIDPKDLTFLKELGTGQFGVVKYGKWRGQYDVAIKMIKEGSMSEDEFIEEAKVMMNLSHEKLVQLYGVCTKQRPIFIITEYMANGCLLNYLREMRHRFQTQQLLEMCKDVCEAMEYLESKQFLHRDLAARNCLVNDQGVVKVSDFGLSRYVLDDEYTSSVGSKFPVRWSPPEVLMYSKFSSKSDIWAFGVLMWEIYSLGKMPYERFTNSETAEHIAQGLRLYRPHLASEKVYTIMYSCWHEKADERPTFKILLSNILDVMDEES

| DC50 (BTK) [µM] | SMILES | IC50 (HEK-293 cells) [µM] |
| --- | --- | --- |
| 0.00413 | Cc1cc(-c2cc(Nc3ccc(N4CCN([C@H]5C[C@@H](c6ccc(N[C@H]7CCC(=O)NC7=O)cc6)C5)CC4)cn3)ncn2)ccc1[C@@H](C)NC(=O)c1nc(C(C)(C)C)no1 [Example 54, 3-(tert-butyl)-N—((R)-1-(4-(6-((5-(4-((1R,3s)-3-(4-(((S)-2,6-dioxopiperidin-3-yl)amino)phenyl)cyclobutyl)piperazin-1-yl)pyridin-2-yl)amino)pyrimidin-4-yl)-2-methylphenyl)ethyl)-1,2,4-oxadiazole-5-carboxamide] | > 10 |
| 0.00208 | Cc1cc(-c2cc(Nc3ccc(N4CCN([C@H]5C[C@H](c6ccc(N[C@@H]7CCC(=O)NC7=O)cc6)C5)CC4)cn3)ncn2)ccc1[C@@H](C)NC(=O)c1nc(C(C)(C)C)no1 [Example 55, 3-(tert-butyl)-N—((R)-1-(4-(6-((5-(4-((1R,3r)-3-(4-(((R)-2,6-dioxopiperidin-3-yl)amino)phenyl)cyclobutyl)piperazin-1-yl)pyridin-2-yl)amino)pyrimidin-4-yl)-2-methylphenyl)ethyl)-1,2,4-oxadiazole-5-carboxamide] | > 10 |
| 0.0099 | Cc1cc(-c2cc(Nc3ccc(N4CCN(C(=O)Cc5cccc(N6CCC(=O)NC6=O)c5)CC4)cn3)ncn2)ccc1[C@@H](C)NC(=O)c1nc(C(C)(C)C)no1 [Example 56, (R)-3-(tert-butyl)-N-(1-(4-(6-((5-(4-(2-(3-(2,4-dioxotetrahydropyrimidin-1(2H)-yl)phenyl)acetyl)piperazin-1-yl)pyridin-2-yl)amino)pyrimidin-4-yl)-2-methylphenyl)ethyl)-1,2,4-oxadiazole-5-carboxamide] | > 10 |
| 0.0295 | Cc1cc(-c2cc(Nc3ccc(N4CCN(CC5CCN(c6cccc(CN7CCC(=O)NC7=O)c6)CC5)CC4)cn3)ncn2)ccc1[C@@H](C)NC(=O)c1nc(C(C)(C)C)no1 [Example 57, (R)-3-(tert-butyl)-N-(1-(4-(6-((5-(4-((1-(3-((2,4-dioxotetrahydropyrimidin-1(2H)-yl)methyl)phenyl)piperidin-4-yl)methyl)piperazin-1-yl)pyridin-2-yl)amino)pyrimidin-4-yl)-2-methylphenyl)ethyl)-1,2,4-oxadiazole-5-carboxamide] | > 10 |
| 0.000276 | Cc1cc(-c2cc(Nc3ccc(N4CCN(CCn5cccc(CN6CCC(=O)NC6=O)c5=O)CC4)cn3)ncn2)ccc1[C@@H](C)NC(=O)c1nc(C(C)(C)C)no1 [Example 58, (R)-3-(tert-butyl)-N-(1-(4-(6-((5-(4-(2-(3-((2,4-dioxotetrahydropyrimidin-1(2H)-yl)methyl)-2-oxopyridin-1(2H)-yl)ethyl)piperazin-1-yl)pyridin-2-yl)amino)pyrimidin-4-yl)-2-methylphenyl)ethyl)-1,2,4-oxadiazole-5-carboxamide] | > 10 |
| 0.0102 | Cc1cc(-c2cc(Nc3ccc(N4CCN(CC5CCN(c6ccc(CN7CCC(=O)NC7=O)cc6)CC5)CC4)cn3)ncn2)ccc1[C@@H](C)NC(=O)c1nc(C(C)(C)C)no1 [Example 59, (R)-3-(tert-butyl)-N-(1-(4-(6-((5-(4-((1-(4-((2,4-dioxotetrahydropyrimidin-1(2H)-yl)methyl)phenyl)piperidin-4-yl)methyl)piperazin-1-yl)pyridin-2-yl)amino)pyrimidin-4-yl)-2-methylphenyl)ethyl)-1,2,4-oxadiazole-5-carboxamide] | > 10 |
| 0.00393 | CCc1nc(Nc2cc(-c3ccc([C@@H](C)NC(=O)c4nc(C(C)(C)C)no4)c(C)c3)ncn2)ccc1N1CCN(CC2CCN(c3ccc(N4CCC(=O)NC4=O)cc3)CC2)CC1 [Example 60, (R)-3-(tert-butyl)-N-(1-(4-(6-((5-(4-((1-(4-(2,4-dioxotetrahydropyrimidin-1(2H)-yl)phenyl)piperidin-4-yl)methyl)piperazin-1-yl)-6-ethylpyridin-2-yl)amino)pyrimidin-4-yl)-2-methylphenyl)ethyl)-1,2,4-oxadiazole-5-carboxamide] | > 10 |
| 0.00165 | Cc1cc(-c2cc(Nc3ccc(N4CCN(CC5CCN(c6ccc(N7CCC(=O)NC7=O)cc6)CC5)CC4)c(C)n3)ncn2)ccc1[C@@H](C)NC(=O)c1nc(C(C)(C)C)no1 [Example 61, (R)-3-(tert-butyl)-N-(1-(4-(6-((5-(4-((1-(4-(2,4-dioxotetrahydropyrimidin-1(2H)-yl)phenyl)piperidin-4-yl)methyl)piperazin-1-yl)-6-methylpyridin-2-yl)amino)pyrimidin-4-yl)-2-methylphenyl)ethyl)-1,2,4-oxadiazole-5-carboxamide] | > 10 |
| 0.0123 | Cc1cc(-c2cc(Nc3cc(C)c(N4CCN(CC5CCN(c6ccc(N7CCC(=O)NC7=O)cc6)CC5)CC4)cn3)ncn2)ccc1[C@@H](C)NC(=O)c1nc(C(C)(C)C)no1 [Example 62] | > 10 |
| 0.000979 | COc1nc(Nc2cc(-c3ccc([C@@H](C)NC(=O)c4nc(C(C)(C)C)no4)c(C)c3)ncn2)ccc1N1CCN(CC2CCN(c3ccc(N4CCC(=O)NC4=O)cc3)CC2)CC1 [Example 63] | 0.614 |
| 0.026 | COc1cc(Nc2cc(-c3ccc([C@@H](C)NC(=O)c4nc(C(C)(C)C)no4)c(C)c3)ncn2)ncc1N1CCN(CC2CCN(c3ccc(N4CCC(=O)NC4=O)cc3)CC2)CC1 [Example 64, (R)-3-(tert-butyl)-N-(1-(4-(6-((5-(4-((1-(4-(2,4-dioxotetrahydropyrimidin-1(2H)-yl)phenyl)piperidin-4-yl)methyl)piperazin-1-yl)-4-methoxypyridin-2-yl)amino)pyrimidin-4-yl)-2-methylphenyl)ethyl)-1,2,4-oxadiazole-5-carboxamide] | > 10 |
| 0.0037 | Cc1cc(-c2cc(Nc3cc(F)c(N4CCN(CC5CCN(c6ccc(N7CCC(=O)NC7=O)cc6)CC5)CC4)cn3)ncn2)ccc1[C@@H](C)NC(=O)c1nc(C(C)(C)C)no1 [Example 65] | > 10 |
| 0.00293 | Cc1cc(-c2ccnc(Nc3ccc(N4CCN(CC5CCN(c6ccc(N7CCC(=O)NC7=O)cc6)CC5)CC4)c(F)n3)n2)ccc1[C@@H](C)NC(=O)c1nc(C(C)(C)C)no1 [Example 66, (R)-3-(tert-butyl)-N-(1-(4-(2-((5-(4-((1-(4-(2,4-dioxotetrahydropyrimidin-1(2H)-yl)phenyl)piperidin-4-yl)methyl)piperazin-1-yl)-6-fluoropyridin-2-yl)amino)pyrimidin-4-yl)-2-methylphenyl)ethyl)-1,2,4-oxadiazole-5-carboxamide] | > 10 |
| 0.0106 | Cc1cc(-c2ccnc(Nc3ccc(N4CCN(CC5CCN(c6ccc(N7CCC(=O)NC7=O)cc6)CC5)CC4)cn3)n2)ccc1[C@@H](C)NC(=O)c1nc(C(C)(C)C)no1 [Example 67, (R)-3-(tert-butyl)-N-(1-(4-(2-((5-(4-((1-(4-(2,4-dioxotetrahydropyrimidin-1(2H)-yl)phenyl)piperidin-4-yl)methyl)piperazin-1-yl)pyridin-2-yl)amino)pyrimidin-4-yl)-2-methylphenyl)ethyl)-1,2,4-oxadiazole-5-carboxamide] | > 10 |
| 0.0174 | Cc1cc(-c2ccnc(Nc3ccc(N4CCN(C5CC6(CCN(c7ccc(N8CCC(=O)NC8=O)cc7)CC6)C5)CC4)cn3)n2)ccc1[C@@H](C)NC(=O)c1nc(C(C)(C)C)no1 [Example 68, (R)-3-(tert-butyl)-N-(1-(4-(2-((5-(4-(7-(4-(2,4-dioxotetrahydropyrimidin-1(2H)-yl)phenyl)-7-azaspiro[3.5]nonan-2-yl)piperazin-1-yl)pyridin-2-yl)amino)pyrimidin-4-yl)-2-methylphenyl)ethyl)-1,2,4-oxadiazole-5-carboxamide] | > 10 |
| 0.00242 | Cc1cc(-c2ccnc(Nc3ccc(N4CCN(CC5CCN(c6ccc(N7CCC(=O)NC7=O)cc6)CC5)CC4)cc3)n2)ccc1[C@@H](C)NC(=O)c1nc(C(C)(C)C)no1 [Example 69, (R)-3-(tert-butyl)-N-(1-(4-(2-((4-(4-((1-(4-(2,4-dioxotetrahydropyrimidin-1(2H)-yl)phenyl)piperidin-4-yl)methyl)piperazin-1-yl)phenyl)amino)pyrimidin-4-yl)-2-methylphenyl)ethyl)-1,2,4-oxadiazole-5-carboxamide] | > 10 |
| > 2 | Cc1cc(-c2ncnc(Nc3ccc(N4CCN(CC5CCN(c6ccc(N7CCC(=O)NC7=O)cc6)CC5)CC4)cn3)c2F)ccc1[C@@H](C)NC(=O)c1nc(C(C)(C)C)no1 [Example 70, (R)-3-(tert-butyl)-N-(1-(4-(6-((5-(4-((1-(4-(2,4-dioxotetrahydropyrimidin-1(2H)-yl)phenyl)piperidin-4-yl)methyl)piperazin-1-yl)pyridin-2-yl)amino)-5-fluoropyrimidin-4-yl)-2-methylphenyl)ethyl)-1,2,4-oxadiazole-5-carboxamide] | > 10 |
| 0.0179 | Cc1cc(-c2cc(Nc3ncc(N4CCN(CC5CCN(c6ccc(N7CCC(=O)NC7=O)cc6)CC5)CC4)s3)ncn2)c(F)cc1[C@@H](C)NC(=O)c1nc(C(C)(C)C)no1 [Example 71, (R)-3-(tert-butyl)-N-(1-(4-(6-((5-(4-((1-(4-(2,4-dioxotetrahydropyrimidin-1(2H)-yl)phenyl)piperidin-4-yl)methyl)piperazin-1-yl)thiazol-2-yl)amino)pyrimidin-4-yl)-5-fluoro-2-methylphenyl)ethyl)-1,2,4-oxadiazole-5-carboxamide] | > 10 |
| 0.0112 | Cc1cc(-c2cc(Nc3nnc(N4CCN(CC5CCN(c6ccc(N7CCC(=O)NC7=O)cc6)CC5)CC4)s3)ncn2)ccc1[C@@H](C)NC(=O)c1nc(C(C)(C)C)no1 [Example 72, (R)-3-(tert-butyl)-N-(1-(4-(6-((5-(4-((1-(4-(2,4-dioxotetrahydropyrimidin-1(2H)-yl)phenyl)piperidin-4-yl)methyl)piperazin-1-yl)-1,3,4-thiadiazol-2-yl)amino)pyrimidin-4-yl)-2-methylphenyl)ethyl)-1,2,4-oxadiazole-5-carboxamide] | 1.91 |
